# US12077483B2, “Modified amine lipids” (Intellia Therapeutics, Inc., priority 2018, dated 2024)
# System: mouse TTR
# Assay: Serum TTR ELISA in mice after LNP delivery
# Assay type: in vivo
# Conditions: mouse serum, relative to TSS control of same experiment, dose 0.03 mpk
# Protocol: For studies measuring in vivo editing in liver, CD-1 female mice were dosed at 0.1 mpk unless otherwise noted. Animals were euthanized at 6 or 7 days by exsanguinationvia cardiac puncture under isoflourane anesthesia. Liver tissue was collected from each animal for DNA extraction and analysis. Blood was collected into serum separator tubes or into tubes containing buffered sodium citrate for plasma as described herein. Cohorts of mice were measured for editing by Next-Generation Sequencing (NGS).
# Blood was collected and the serum was isolated as indicated. The total mouse TTR serum levels were determined using a Mouse Prealbumin (Transthyretin) ELISA Kit (Aviva Systems Biology, Cat. OKIA00111). Briefly, sera were serial diluted with kit sample diluent, e.g. to a final dilution of 10,000-fold and/or 2,500-fold. The diluted sample was then added to the ELISA plates and the assay was then carried out according to directions. Serum TTR data from treatment groups are expressed as a percentage of vehicle control levels.
row,Structure (SMILES),Serum TTR % TSS [% TSS]
1,"CCCCC/C=C\C/C=C\CCCCCCCC(=O)OCC(COC(=O)CCCCCCC/C=C\C/C=C\CCCCC)OC(=O)CCC(CCCCCCCCCCCC)OC(=O)OCCN(C)C (centres unmarked) [Compound 4, 2-((4-(((2-(dimethylamino)ethoxy)carbonyl)oxy)hexadecanoyl)oxy)propane-1,3-diyl (9Z,9′Z,12Z,12′Z)-bis(octadeca-9,12-dienoate)]",73.09

# Same assay, conditions: mouse serum, relative to TSS control of same experiment, dose 0.1 mpk
row,Structure (SMILES),Serum TTR % TSS [% TSS]
1,"CCCCC/C=C\C/C=C\CCCCCCCC(=O)OCC(COC(=O)CCCCCCC/C=C\C/C=C\CCCCC)COC(=O)CCC(CCCCCCCC)OC(=O)NCCN(C)CC (centres unmarked) [Compound 54, 2-(12-methyl-6-octyl-3,8-dioxo-2,7-dioxa-9,12-diazatetradecyl)propane-1,3-diyl (9Z,9′Z,12Z,12′Z)-bis(octadeca-9,12-dienoate)]",18.32
2,"CCCCCCCCCCOC(=O)CCCCCCCC(=O)OCC(COC(=O)CCCCCCCC(=O)OCCCCCCCCCC)OC(=O)CC(CCCCCCCC)OC(=O)NCCN(C)CC (centres unmarked) [Compound 56, 9,9′-didecyl O′1,O1-(2-((3-(((2-(ethyl(methyl)amino)ethyl)carbamoyl)oxy)undecanoyl)oxy)propane-1,3-diyl) di(nonanedioate)]",69.70

# System: not listed separately
# Assay: pKa of amine lipid by TNS fluorescence
# Assay type: physicochemical
# Conditions: probe TNS (6-(p-toluidino)-2-naphthalenesulfonic acid sodium salt), unformulated amine lipid in ethanol, sodium phosphate buffers -9.0
# Protocol: The pKa of each amine lipid was determined according to the method in Jayaraman, et al. (Angewandte Chemie, 2012) with the following adaptations. The pKa was determined for unformulated amine lipid in ethanol. Lipid stock solutions (2.94 mM) were diluted into Sodium Phosphate Buffers (0.1 M, Boston Bioproducts) of different pH (pH-range: 4.5-9.0) yielding a final lipid concentration of approx. 100 μM. The test samples were supplemented with TNS {6-(p-Toluidino)-2-naphthalenesulfonic acid sodium salt}, incubated and the fluorescence intensity was measured using excitation and emission wavelengths of 321 nm and 448 nm, respectively. The recorded data were normalized and the respective pKa values were derived from sigmoidal fitting.
row,Structure (SMILES),pKa
1,"CCCCC/C=C\C/C=C\CCCCCCCC(=O)OCC(COC(=O)CCCCCCC/C=C\C/C=C\CCCCC)OC(=O)CCC(CCCCCCCCCCCC)OC(=O)OCCCN(CC)CC (centres unmarked) [Compound 2, 2-((4-(((3-(diethylamino)propoxy)carbonyl)oxy)hexadecanoyl)oxy)propane-1,3-diyl (9Z,9′Z,12Z,12′Z)-bis(octadeca-9,12-dienoate)]",5.28
2,"CCCCC/C=C\C/C=C\CCCCCCCC(=O)OCC(COC(=O)CCCCCCC/C=C\C/C=C\CCCCC)OC(=O)CCC(CCCCCCCCCCCC)OC(=O)OCCN(C)C (centres unmarked) [Compound 4, 2-((4-(((2-(dimethylamino)ethoxy)carbonyl)oxy)hexadecanoyl)oxy)propane-1,3-diyl (9Z,9′Z,12Z,12′Z)-bis(octadeca-9,12-dienoate)]",< 5
3,"CCCCC/C=C\C/C=C\CCCCCCCC(=O)OCC(COC(=O)CCCCCCC/C=C\C/C=C\CCCCC)OC(=O)CCC(CCCCCCCCCCCC)OC(=O)NCCCN(CC)CC (centres unmarked) [Compound 13, 2-((4-(((3-(diethylamino)propyl)carbamoyl)oxy)hexadecanoyl)oxy)propane-1,3-diyl (9Z,9′Z,12Z,12′Z)-bis(octadeca-9,12-dienoate)]",7.2
4,"CCCCC/C=C\C/C=C\CCCCCCCC(=O)OCC(COC(=O)CCCCCCC/C=C\C/C=C\CCCCC)OC(=O)CCC(CCCCCCCC)OC(=O)N(C)CCN(C)CC (centres unmarked) [Compound 37, 2-((4-(((2-(ethyl(methyl)amino)ethyl)(methyl)carbamoyl)oxy)dodecanoyl)oxy) propane-1,3-diyl (9Z,9′Z,12Z,12′Z)-bis(octadeca-9,12-dienoate)]",5.36
5,"CCCCC/C=C\C/C=C\CCCCCCCC(=O)OCC(COC(=O)CCCCCCC/C=C\C/C=C\CCCCC)OC(=O)CCCOC(=O)NCCN(C)CC [Compound 43, 2-((4-(((2-(ethyl(methyl)amino)ethyl)carbamoyl)oxy)butanoyl)oxy)propane-1,3-diyl (9Z,9′Z,12Z,12′Z)-bis(octadeca-9,12-dienoate)]",7.33
6,"CCCCC/C=C\C/C=C\CCCCCCCC(=O)OCC(COC(=O)CCCCCCC/C=C\C/C=C\CCCCC)COC(=O)CCC(CCCCCCCC)OC(=O)NCCN(C)CC (centres unmarked) [Compound 54, 2-(12-methyl-6-octyl-3,8-dioxo-2,7-dioxa-9,12-diazatetradecyl)propane-1,3-diyl (9Z,9′Z,12Z,12′Z)-bis(octadeca-9,12-dienoate)]",6.25
7,"CCCCCCCCCCOC(=O)CCCCCCCC(=O)OCC(COC(=O)CCCCCCCC(=O)OCCCCCCCCCC)OC(=O)CC(CCCCCCCC)OC(=O)NCCN(C)CC (centres unmarked) [Compound 56, 9,9′-didecyl O′1,O1-(2-((3-(((2-(ethyl(methyl)amino)ethyl)carbamoyl)oxy)undecanoyl)oxy)propane-1,3-diyl) di(nonanedioate)]",6.28
8,CCCCCCCCCCOC(=O)CCCCCCCC(=O)OCC(COC(=O)CCCCCCCC(=O)OCCCCCCCCCC)OC(=O)CCCC(CCCCCCCC)OC(=O)NCCN(C)CC (centres unmarked) [Compound 58],6.32
9,"CCCCC/C=C\C/C=C\CCCCCCCC(=O)OCC(COC(=O)CCCCCCC/C=C\C/C=C\CCCCC)OC(=O)CCC(CCCCC(C)C)OC(=O)NCCN(C)CC (centres unmarked) [Compound 80, 2-((4-(((2-(ethyl(methyl)amino)ethyl)carbamoyl)oxy)-9-methyldecanoyl)oxy)propane-1,3-diyl (9Z,9′Z,12Z,12′Z)-bis(octadeca-9,12-dienoate)]",6.41
10,"CCCCC/C=C\C/C=C\CCCCCCCC(=O)OCC(COC(=O)CCCCCCC/C=C\C/C=C\CCCCC)OC(=O)CCC(CCCCCC(C)C)OC(=O)NCCN(C)CC (centres unmarked) [Compound 81, 2-((4-(((2-(ethyl(methyl)amino)ethyl)carbamoyl)oxy)-10-methylundecanoyl)oxy)propane-1,3-diyl (9Z,9′Z,12Z,12′Z)-bis(octadeca-9,12-dienoate)]",6.42
11,"CCCCC/C=C\C/C=C\CCCCCCCC(=O)OCC(COC(=O)CCCCCCC/C=C\C/C=C\CCCCC)OC(=O)CCC(CCCCCC)OC(=O)OCCCN1CCC1 (centres unmarked) [Compound 101, 2-((4-(((3-(azetidin-1-yl)propoxy)carbonyl)oxy)decanoyl)oxy)propane-1,3-diyl (9Z,9′Z,12Z,12′Z)-bis(octadeca-9,12-dienoate)]",6.75
12,"CCCCC/C=C\C/C=C\CCCCCCCC(=O)OCC(COC(=O)CCCCCCC/C=C\C/C=C\CCCCC)OC(=O)CCC(CCCCCC)OC(=O)OCCCN1CCCCC1 (centres unmarked) [Compound 102, 2-((4-(((3-(piperidin-1-yl)propoxy)carbonyl)oxy)decanoyl)oxy)propane-1,3-diyl (9Z,9′Z,12Z,12′Z)-bis(octadeca-9,12-dienoate)]",5.16
13,"CCCCC/C=C\C/C=C\CCCCCCCC(=O)OCC(COC(=O)CCCCCCC/C=C\C/C=C\CCCCC)COC(=O)CC(CCCC)OC(=O)NCCN1CCCC1 (centres unmarked) [Compound 113, 2-(((3-(((2-(pyrrolidin-1-yl)ethyl)carbamoyl)oxy)heptanoyl)oxy)methyl)propane-1,3-diyl (9Z,9′Z,12Z,12′Z)-bis(octadeca-9,12-dienoate)]",7.02
14,CCCCC/C=C\C/C=C\CCCCCCCC(=O)OCC(COC(=O)CCCCCCC/C=C\C/C=C\CCCCC)OC(=O)CCC(CCCCCCCCCCCC)OC(=O)OC1CCN(C)CC1 (centres unmarked) [f47],5.99

# Second part, the molecule after the results:
row,pKa,Structure (SMILES)
1,6.71,"CCCCC/C=C\C/C=C\CCCCCCCC(=O)OCC(COC(=O)CCCCCCC/C=C\C/C=C\CCCCC)OC(=O)CCC(CCCCC(C)C)OC(=O)NCCN1CCCC1 (centres unmarked) [Compound 82, 2-((9-methyl-4-(((2-(pyrrolidin-1-yl)ethyl)carbamoyl)oxy)decanoyl)oxy)propane-1,3-diyl (9Z,9′Z,12Z,12′Z)-bis(octadeca-9,12-dienoate)]"
2,6.61,"CCCCC/C=C\C/C=C\CCCCCCCC(=O)OCC(COC(=O)CCCCCCC/C=C\C/C=C\CCCCC)OC(=O)CCC(CCCCCC(C)C)OC(=O)NCCN1CCCC1 (centres unmarked) [Compound 83, 2-((10-methyl-4-(((2-(pyrrolidin-1-yl)ethyl)carbamoyl)oxy)undecanoyl)oxy)propane-1,3-diyl (9Z,9′Z,12Z,12′Z)-bis(octadeca-9,12-dienoate)]"
3,6.91,"CCCCC/C=C\C/C=C\CCCCCCCC(=O)OCC(COC(=O)CCCCCCC/C=C\CCCCCCCC)OC(=O)CCC(CCCC)OC(=O)NCCN1CCCC1 (centres unmarked) [Compound 109, 3-(oleoyloxy)-2-((4-(((2-(pyrrolidin-1-yl)ethyl)carbamoyl)oxy)octanoyl)oxy)propyl (9Z,12Z)-octadeca-9,12-dienoate]"
4,7.01,"CCCCCCCC/C=C\CCCCCCCC(=O)OCC(COC(=O)CCCCCCC/C=C\CCCCCCCC)OC(=O)CCC(CCCC)OC(=O)NCCN1CCCC1 (centres unmarked) [Compound 110, 2-((4-(((2-(pyrrolidin-1-yl)ethyl)carbamoyl)oxy)octanoyl)oxy)propane-1,3-diyl dioleate]"
5,7.02,"CCCCC/C=C\C/C=C\CCCCCCCC(=O)OCC(COC(=O)CCC(CCCC)OC(=O)NCCN1CCCC1)OC(=O)CCCCCCC/C=C\C/C=C\CCCCC (centres unmarked) [Compound 111, 3-((4-(((2-(pyrrolidin-1-yl)ethyl)carbamoyl)oxy)octanoyl)oxy)propane-1,2-diyl (9Z,9′Z,12Z,12′Z)-bis(octadeca-9,12-dienoate)]"
6,7.02,"CCCCC/C=C\C/C=C\CCCCCCCC(=O)OCC(COC(=O)CCCCCCC/C=C\C/C=C\CCCCC)COC(=O)CCC(CCCC)OC(=O)NCCN1CCCC1 (centres unmarked) [Compound 112, 2-(((4-(((2-(pyrrolidin-1l-yl)ethyl)carbamoyl)oxy)octanoyl)oxy)methyl)propane-1,3-diyl (9Z,9′Z,12Z,12′Z)-bis(octadeca-9,12-dienoate)]"
